Assay results: patent US11492346B2, “Benzisoxazole sulfonamide derivatives” (Pfizer Inc., priority 2019, dated 2022)
Read-outs that look alike come from different tables or passages of the source.

Key:
[1] = target: KAT6A (Homo sapiens (Human), UniProt Q92794); test: KAT assay (SAMDI mass spectrometry), KAT6A; assay type: biochemical;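 note: Baculovirus-expressed KAT6A acetylating histone H3 (1-21) peptide (2 µM), 30-60 min at room temperature, % product conversion fitted to Morrison equation for tight-binding competitive inhibitors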
KAT6A, sequence (Q92794 whole entry): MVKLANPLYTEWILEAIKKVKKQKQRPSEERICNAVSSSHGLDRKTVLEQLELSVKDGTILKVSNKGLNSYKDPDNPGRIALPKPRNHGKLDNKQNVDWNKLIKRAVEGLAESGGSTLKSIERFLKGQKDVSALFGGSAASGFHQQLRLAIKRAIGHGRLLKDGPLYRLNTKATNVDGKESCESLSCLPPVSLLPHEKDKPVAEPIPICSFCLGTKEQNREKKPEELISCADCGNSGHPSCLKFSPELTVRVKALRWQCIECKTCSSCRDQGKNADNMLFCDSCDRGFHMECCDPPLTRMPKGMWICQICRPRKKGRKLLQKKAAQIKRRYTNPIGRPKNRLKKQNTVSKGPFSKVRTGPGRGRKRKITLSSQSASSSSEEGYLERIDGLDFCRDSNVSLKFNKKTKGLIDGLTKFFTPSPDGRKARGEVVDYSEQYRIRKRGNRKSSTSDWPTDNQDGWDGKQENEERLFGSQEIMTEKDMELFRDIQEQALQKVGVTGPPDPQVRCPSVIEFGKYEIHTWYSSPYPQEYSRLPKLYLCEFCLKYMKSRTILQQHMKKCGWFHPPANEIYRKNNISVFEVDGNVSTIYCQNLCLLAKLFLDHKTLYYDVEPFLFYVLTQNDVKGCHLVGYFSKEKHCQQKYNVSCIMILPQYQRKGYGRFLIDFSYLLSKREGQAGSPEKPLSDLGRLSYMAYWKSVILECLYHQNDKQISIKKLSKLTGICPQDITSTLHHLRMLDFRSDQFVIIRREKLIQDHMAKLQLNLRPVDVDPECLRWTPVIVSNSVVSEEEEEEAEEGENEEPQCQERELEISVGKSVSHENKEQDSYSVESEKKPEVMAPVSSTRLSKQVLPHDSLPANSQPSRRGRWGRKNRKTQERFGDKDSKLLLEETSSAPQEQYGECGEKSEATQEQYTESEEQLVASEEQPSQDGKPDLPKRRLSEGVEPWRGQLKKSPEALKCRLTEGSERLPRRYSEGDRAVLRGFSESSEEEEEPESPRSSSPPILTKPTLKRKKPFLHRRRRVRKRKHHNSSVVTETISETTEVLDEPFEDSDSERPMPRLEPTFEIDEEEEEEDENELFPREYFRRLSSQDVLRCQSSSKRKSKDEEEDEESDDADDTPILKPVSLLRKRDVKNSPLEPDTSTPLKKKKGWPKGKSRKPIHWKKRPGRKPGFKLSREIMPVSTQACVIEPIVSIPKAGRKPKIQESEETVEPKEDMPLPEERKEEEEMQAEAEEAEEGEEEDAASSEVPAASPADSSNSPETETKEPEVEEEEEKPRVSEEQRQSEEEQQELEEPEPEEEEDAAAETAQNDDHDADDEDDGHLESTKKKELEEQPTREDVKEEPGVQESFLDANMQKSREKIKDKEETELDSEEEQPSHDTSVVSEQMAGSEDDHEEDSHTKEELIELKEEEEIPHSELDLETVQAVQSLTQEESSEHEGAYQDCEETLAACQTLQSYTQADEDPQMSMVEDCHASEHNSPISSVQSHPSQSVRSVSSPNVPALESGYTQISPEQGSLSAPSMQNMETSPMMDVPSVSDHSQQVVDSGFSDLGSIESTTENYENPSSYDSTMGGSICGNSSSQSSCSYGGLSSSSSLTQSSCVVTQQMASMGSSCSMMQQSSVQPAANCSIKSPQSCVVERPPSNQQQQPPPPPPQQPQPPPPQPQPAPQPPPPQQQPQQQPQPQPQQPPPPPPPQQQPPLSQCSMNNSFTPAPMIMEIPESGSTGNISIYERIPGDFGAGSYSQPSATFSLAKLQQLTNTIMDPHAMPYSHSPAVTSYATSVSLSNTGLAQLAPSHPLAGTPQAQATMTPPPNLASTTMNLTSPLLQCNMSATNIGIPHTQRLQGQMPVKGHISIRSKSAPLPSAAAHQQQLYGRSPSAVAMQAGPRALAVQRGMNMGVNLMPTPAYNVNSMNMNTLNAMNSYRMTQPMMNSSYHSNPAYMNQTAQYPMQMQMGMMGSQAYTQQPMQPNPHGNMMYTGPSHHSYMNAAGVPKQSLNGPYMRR

[2] = target: KAT7 (Homo sapiens (Human), UniProt O95251); test: KAT assay (SAMDI mass spectrometry), KAT7; assay type: biochemical;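 note: Baculovirus-expressed enzyme acetylating a histone peptide at room temperature, percent conversion from product and substrate peak areas, Ki from a Morrison tight-binding competitive fit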
KAT7, sequence (O95251 whole entry): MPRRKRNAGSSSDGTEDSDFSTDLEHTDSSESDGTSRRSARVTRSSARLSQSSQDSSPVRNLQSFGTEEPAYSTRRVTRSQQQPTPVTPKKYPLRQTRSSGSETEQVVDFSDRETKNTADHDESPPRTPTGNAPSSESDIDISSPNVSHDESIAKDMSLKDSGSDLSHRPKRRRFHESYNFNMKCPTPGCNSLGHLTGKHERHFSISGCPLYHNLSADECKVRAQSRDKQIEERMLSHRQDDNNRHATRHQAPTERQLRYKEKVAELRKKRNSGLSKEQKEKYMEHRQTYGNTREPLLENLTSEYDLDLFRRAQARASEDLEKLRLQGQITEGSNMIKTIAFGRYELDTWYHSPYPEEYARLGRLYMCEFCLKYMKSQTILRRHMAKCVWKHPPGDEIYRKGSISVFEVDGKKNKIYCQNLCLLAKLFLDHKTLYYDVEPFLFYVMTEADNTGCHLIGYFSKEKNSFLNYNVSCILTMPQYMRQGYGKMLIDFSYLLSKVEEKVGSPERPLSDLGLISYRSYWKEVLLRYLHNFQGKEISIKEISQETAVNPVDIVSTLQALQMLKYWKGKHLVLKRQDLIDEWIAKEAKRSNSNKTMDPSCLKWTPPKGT

[3] = KAT6a Ki at 1 μM AcCoA, 1 μM AcCoA
[4] = KAT6a Ki at 10 μM AcCoA, 10 μM AcCoA
[5] = read-out: KAT6a Ki at 1 μM AcCoA, 1 μM AcCoA
[6] = read-out: KAT7 Ki at 1 μM AcCoA
[7] = read-out: KAT6a Ki at 10 μM AcCoA, 10 μM AcCoA

| SMILES | Ki [1, 3] | Ki ([2]; KAT7 Ki at 1 μM AcCoA) | Ki [1, 4] | Ki [1, 5] | Ki [2, 6] | Ki [1, 7] |
| --- | --- | --- | --- | --- | --- | --- |
| COc1cccc(OC)c1S(=O)(=O)Nc1noc2cc(C(O)c3ncco3)cc(OC)c12 (single isomer, unassigned) [Example 108, N-{6-[(S*)-hydroxy(1,3-oxazol-2-yl)methyl]-4-methoxy-1,2-benzoxazol-3-yl}-2,6-dimethoxybenzenesulfonamide] | 72 nM | 1300 nM |  |  |  |  |
| COc1cccc(OC)c1S(=O)(=O)Nc1noc2cc(C(O)c3ncco3)cc(OC)c12 (single isomer, unassigned) [Example 109, N-{6-[(R*)-hydroxy(1,3-oxazol-2-yl)methyl]-4-methoxy-1,2-benzoxazol-3-yl}-2,6-dimethoxybenzenesulfonamide] | 44 nM | 3100 nM |  |  |  |  |
| COc1cccc(OC)c1S(=O)(=O)Nc1noc2cc(C(O)c3ccon3)cc(OC)c12 (single isomer, unassigned) [Example 112] | 82 nM | 1500 nM |  |  |  |  |
| COc1cccc(OC)c1S(=O)(=O)Nc1noc2cc(C(O)c3ccon3)cc(OC)c12 (single isomer, unassigned) [Example 113] | 14 nM | 2800 nM |  |  |  |  |
| COc1cccc(OC)c1S(=O)(=O)Nc1noc2cc(C(O)c3ncccn3)cc(OC)c12 (single isomer, unassigned) [Example 115] | 1220 nM | > 15000 nM |  |  |  |  |
| COc1cccc(OC)c1S(=O)(=O)Nc1noc2cc(C(O)c3cc[nH]n3)cc(OC)c12 (single isomer, unassigned) [Example 117] | 202 nM | 200 nM |  |  |  |  |
| COc1cccc(OC)c1S(=O)(=O)Nc1noc2cc(C(O)c3cc[nH]n3)cc(OC)c12 (single isomer, unassigned) [Example 118] | 357 nM | 2300 nM |  |  |  |  |
| COc1cccc(OC)c1S(=O)(=O)Nc1noc2cc(C(O)c3cnoc3)cc(OC)c12 (single isomer, unassigned) [Example 120] | 831 nM | 2400 nM | 212 nM |  |  |  |
| COc1cccc(OC)c1S(=O)(=O)Nc1noc2cc(C(O)c3cnoc3)cc(OC)c12 (single isomer, unassigned) [Example 121] | 1580 nM | > 15000 nM | > 600 nM |  |  |  |
| COc1cccc(OC)c1S(=O)(=O)Nc1noc2cc(C(O)c3cocn3)cc(OC)c12 (single isomer, unassigned) [Example 126] | 230 nM | 4150 nM |  |  |  |  |
| COc1cccc(OC)c1S(=O)(=O)Nc1noc2cc(Cn3ncc4ccccc43)cc(OC)c12 [Example 30] |  |  |  | 60 nM | 1100 nM |  |
| COc1ccc(Cl)cc1S(=O)(=O)Nc1noc2cc(Cn3cccn3)ccc12 [Example 36] |  |  |  | 17 nM | 980 nM |  |
| COCc1ccc(OC)c(S(=O)(=O)Nc2noc3cc(Cn4cccn4)ccc23)c1 [Example 37] |  |  |  | 17 nM | 4600 nM |  |
| COc1cc(C)ccc1S(=O)(=O)Nc1noc2cc(Cn3cccn3)ccc12 [Example 38] |  |  |  | 16 nM | 530 nM |  |
| CCOc1cc2c(NS(=O)(=O)c3c(OC)cccc3OC)noc2cc1Cn1cccn1 [Example 40] |  |  |  | 0.47 nM | 380 nM |  |
| COc1cc(Cn2cccn2)cc2onc(NS(=O)(=O)c3ccc(OC4CC4)cc3)c12 [Example 60] |  |  |  | 9.81 nM | 420 nM | 4.64 nM |
| CNC(=O)c1ccc(S(=O)(=O)Nc2noc3cc(Cn4cccn4)cc(OC)c23)cc1 [Example 66] |  |  |  | 95.4 nM | 4050 nM | 65.6 nM |
| COc1cccc(OC)c1S(=O)(=O)Nc1noc2cc(Cn3cc(O)cn3)cc(OC)c12 [Example 105, N-{6-[(4-hydroxy-1H-pyrazol-1-yl)methyl]-4-methoxy-1,2-benzoxazol-3-yl}-2,6-dimethoxybenzene-1-sulfonamide] |  |  |  | 3.08 nM | 230 nM | 6.28 nM |
| COc1cccc(OC)c1S(=O)(=O)Nc1noc2cc(C(O)c3ccccn3)cc(OC)c12 (stereo not drawn) [Example 106, N-{6-[hydroxy(pyridin-2-yl)methyl]-4-methoxy-1,2-benzoxazol-3-yl}-2,6-dimethoxybenzenesulfonamide] |  |  |  | 35 nM | 1900 nM |  |
| COc1cccc(OC)c1S(=O)(=O)Nc1noc2cc(Cc3cnccn3)cc(OC)c12 [Example 111, 2,6-dimethoxy-N-[4-methoxy-6-(pyrazin-2-ylmethyl)-1,2-benzoxazol-3-yl]benzenesulfonamide] |  |  |  | 13 nM | 390 nM |  |
| COc1cccc(OC)c1S(=O)(=O)Nc1noc2cc(Cc3cc[nH]n3)cc(OC)c12 [Example 119] |  |  |  | 21 nM | 650 nM | 13 nM |
| COc1cccc(OC)c1S(=O)(=O)Nc1noc2cc(Cc3cnoc3)cc(OC)c12 [Example 122] |  |  |  | 164 nM | 7400 nM | 25 nM |
| COc1cccc(OC)c1S(=O)(=O)Nc1noc2cc(C(O)c3cnccn3)cc(OC)c12 (stereo not drawn) [Example 123] |  |  |  | 138 nM | 4600 nM |  |

Next, values leading:

| Ki [1, 3] | Ki ([2]; KAT7 Ki at 1 μM AcCoA) | Ki [1, 4] | Ki [1, 5] | Ki [2, 6] | Ki [1, 7] | SMILES |
| --- | --- | --- | --- | --- | --- | --- |
|  |  |  | 3.1 nM | 310 nM |  | COc1cccc(OC)c1S(=O)(=O)Nc1noc2cc(Cn3cccn3)cc(Cl)c12 [Example 33] |
|  |  |  | 15 nM | 420 nM |  | COc1ccc(S(=O)(=O)Nc2noc3cc(Cn4cccn4)ccc23)c(OC)c1 [Example 35] |
|  |  |  | 3.6 nM | 570 nM |  | COc1cc2c(cc1S(=O)(=O)Nc1noc3cc(Cn4cccn4)cc(OC)c13)CCOC2 [Example 43] |
|  |  |  | 32.9 nM | 1030 nM | 13.1 nM | COc1cc(Cn2cccn2)cc2onc(NS(=O)(=O)c3ccc(C(F)(F)F)cc3)c12 [Example 46] |
|  |  |  | 14.9 nM | 410 nM | 6.51 nM | COc1cc(Cn2cccn2)cc2onc(NS(=O)(=O)c3cc(C)cc(C)c3)c12 [Example 48] |
|  |  |  | 9.77 nM | 370 nM | 4.14 nM | COc1cc(Cn2cccn2)cc2onc(NS(=O)(=O)c3cc(F)ccc3C)c12 [Example 49] |
|  |  |  | 14.6 nM | 660 nM | 7.32 nM | COc1cc(Cn2cccn2)cc2onc(NS(=O)(=O)c3ccccc3C(F)(F)F)c12 [Example 52] |
|  |  |  | 16.1 nM | 300 nM | 8.78 nM | COc1cc(Cn2cccn2)cc2onc(NS(=O)(=O)c3cccc(C(F)(F)F)c3)c12 [Example 53] |
|  |  |  | 57 nM | 1160 nM | 38 nM | COc1cc(Cn2cccn2)cc2onc(NS(=O)(=O)c3cccc(F)c3F)c12 [Example 54] |
|  |  |  | 291 nM | 15000 nM | 178 nM | COC(=O)c1cccc(C)c1S(=O)(=O)Nc1noc2cc(Cn3cccn3)cc(OC)c12 [Example 55] |
|  |  |  | 14.9 nM | 600 nM | 7.31 nM | COc1cc(Cn2cccn2)cc2onc(NS(=O)(=O)c3cccc(F)c3C)c12 [Example 56] |
|  |  |  | 16 nM | 450 nM |  | COc1cc(Cn2cccn2)cc2onc(NS(=O)(=O)c3cc(F)cc(F)c3)c12 [Example 57] |
|  |  |  | 11.1 nM | 860 nM | 5.23 nM | COc1cc(Cn2cccn2)cc2onc(NS(=O)(=O)c3cc(C)ccc3F)c12 [Example 58] |
|  |  |  | 13 nM | 220 nM | 6.25 nM | COc1cccc(S(=O)(=O)Nc2noc3cc(Cn4cccn4)cc(OC)c23)c1 [Example 59] |
|  |  |  | 9.64 nM | 360 nM | 3.9 nM | COc1cc(Cn2cccn2)cc2onc(NS(=O)(=O)c3c(F)cc(C)cc3F)c12 [Example 62] |
|  |  |  | 15.8 nM | 940 nM | 10.9 nM | COc1cc(Cn2cccn2)cc2onc(NS(=O)(=O)c3cccc(F)c3Cl)c12 [Example 63] |
|  |  |  | 25.3 nM | 630 nM | 11 nM | COc1cc(Cn2cccn2)cc2onc(NS(=O)(=O)c3cc(F)c(F)c(F)c3)c12 [Example 64] |
|  |  |  | 20 nM | 1760 nM | 10.2 nM | COCc1ccccc1S(=O)(=O)Nc1noc2cc(Cn3cccn3)cc(OC)c12 [Example 67] |
|  |  |  | 14.9 nM | 250 nM | 10.5 nM | COc1cc(Cn2cccn2)cc2onc(NS(=O)(=O)c3cc(F)c(Cl)cc3F)c12 [Example 68] |
|  |  |  |  | 370 nM | 9.1 nM | CCOc1ccc(S(=O)(=O)Nc2noc3cc(Cn4cccn4)cc(OC)c23)cc1 [Example 69] |
|  |  |  | 24.8 nM | 2870 nM | 13.6 nM | COC(=O)c1c(C)cccc1S(=O)(=O)Nc1noc2cc(Cn3cccn3)cc(OC)c12 [Example 74] |
|  |  |  | 15.6 nM | 360 nM | 5.32 nM | COc1cc(OC)cc(S(=O)(=O)Nc2noc3cc(Cn4cccn4)cc(OC)c23)c1 [Example 80] |
|  |  |  | 18.2 nM | 1620 nM | 9.96 nM | CCc1nc2cc(S(=O)(=O)Nc3noc4cc(Cn5cccn5)cc(OC)c34)ccc2o1 [Example 81] |
|  |  |  | 16.9 nM | 640 nM | 12.2 nM | COc1cc(S(=O)(=O)Nc2noc3cc(Cn4cccn4)cc(OC)c23)ccc1F [Example 82] |
|  |  |  | 13.7 nM | 780 nM | 7.76 nM | COc1ccc(O)c(S(=O)(=O)Nc2noc3cc(Cn4cccn4)cc(OC)c23)c1 [Example 83] |
|  |  |  | 13.3 nM | 1140 nM | 8.77 nM | COc1ccc(S(=O)(=O)Nc2noc3cc(Cn4cccn4)cc(OC)c23)c(C)c1F [Example 85] |
|  |  |  | 28.9 nM | 370 nM | 7.11 nM | COc1cc(Cn2cccn2)cc2onc(NS(=O)(=O)c3cc(F)c(F)cc3F)c12 [Example 86] |
|  |  |  | 0.3 nM | 150 nM | 0.51 nM | COc1ccc(O)c(OC)c1S(=O)(=O)Nc1noc2cc(Cn3cccn3)cc(OC)c12 [Example 103, 3-hydroxy-2,6-dimethoxy-N-{4-methoxy-6-[(1H-pyrazol-1-yl)methyl]-1,2-benzoxazol-3-yl}benzene-1-sulfonamide] |
|  |  |  | 6.11 nM | 2060 nM | 3.89 nM | COc1cccc(O)c1S(=O)(=O)Nc1noc2cc(Cn3cccn3)cc(OC)c12 [Example 104, 2-hydroxy-6-methoxy-N-{4-methoxy-6-[(1H-pyrazol-1-yl)methyl]-1,2-benzoxazol-3-yl}benzene-1-sulfonamide] |
